Laboratory results as given in ChEMBL document CHEMBL1201862, “PubChem BioAssay data set” (2004).
Where a name gives a salt, the structure may show the parent alone. The source made the active and inactive calls. For most assays here, no stated cut-off is given here; in the data, active = IC50 of 5 µM or less and inactive = more.

Tests used:
Protein Tat = Protein Tat (Human immunodeficiency virus type 1 group M subtype B (isolate HXB2)(HIV-1), UniProt P04608); format: functional;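 further: tat binding to TAR RNA read out by fluorescence polarization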
Sequence of Protein Tat (P04608 whole entry): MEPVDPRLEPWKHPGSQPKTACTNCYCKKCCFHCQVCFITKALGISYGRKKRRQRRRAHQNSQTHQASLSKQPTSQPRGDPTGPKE

Large T antigen = Large T antigen (Simian virus 40, UniProt P03070); format: functional, Betapolyomavirus macacae;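 further: Confirmatory-stage PubChem screen for compounds that inhibit SV40 T antigen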
Sequence of Large T antigen (P03070 whole entry): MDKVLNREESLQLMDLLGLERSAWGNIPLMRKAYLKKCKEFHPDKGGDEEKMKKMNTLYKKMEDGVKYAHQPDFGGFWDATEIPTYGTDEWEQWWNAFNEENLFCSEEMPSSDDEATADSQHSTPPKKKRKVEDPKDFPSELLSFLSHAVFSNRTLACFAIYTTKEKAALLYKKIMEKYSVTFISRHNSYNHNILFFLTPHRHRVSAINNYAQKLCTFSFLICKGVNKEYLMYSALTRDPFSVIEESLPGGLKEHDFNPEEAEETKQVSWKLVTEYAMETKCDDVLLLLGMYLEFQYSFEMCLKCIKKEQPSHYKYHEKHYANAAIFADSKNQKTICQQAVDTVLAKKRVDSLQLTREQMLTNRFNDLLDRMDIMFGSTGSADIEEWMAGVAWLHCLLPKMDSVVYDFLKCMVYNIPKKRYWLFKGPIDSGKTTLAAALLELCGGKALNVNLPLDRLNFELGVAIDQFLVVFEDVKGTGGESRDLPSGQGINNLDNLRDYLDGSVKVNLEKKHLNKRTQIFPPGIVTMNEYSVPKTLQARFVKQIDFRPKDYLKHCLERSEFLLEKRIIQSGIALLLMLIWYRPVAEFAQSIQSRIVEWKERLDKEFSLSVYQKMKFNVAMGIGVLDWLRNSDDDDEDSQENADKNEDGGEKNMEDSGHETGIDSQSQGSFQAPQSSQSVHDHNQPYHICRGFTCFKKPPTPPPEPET

[1] = viability inhibitors of stage V gametocytes – luminescence, dose response (AID 1117278); format: functional, cell-based;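 further: gametocytes exposed to compound for 24 hours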
[2] = viability loss in human Jurkat cells – cell-based, luminescence, cytotoxicity control for P. falciparum gametocyte viability project, dose response (AID 1117277); format: functional;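 further: potency reflects loss of cellular ATP meaning fewer viable cells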
[3] = IC50 of insulin release inhibition, rat insulinoma INS-1E line, 5 mM glucose, cell-based (AID 1117331); format: functional
[4] = molecular target: G-protein coupled receptor 183 (Homo sapiens, UniProt P32249); assay: SAR confirmation of small molecule antagonists of the EBI2 receptor via a luminescent beta-arrestin assa.; format: functional
Sequence of G-protein coupled receptor 183 (P32249 whole entry): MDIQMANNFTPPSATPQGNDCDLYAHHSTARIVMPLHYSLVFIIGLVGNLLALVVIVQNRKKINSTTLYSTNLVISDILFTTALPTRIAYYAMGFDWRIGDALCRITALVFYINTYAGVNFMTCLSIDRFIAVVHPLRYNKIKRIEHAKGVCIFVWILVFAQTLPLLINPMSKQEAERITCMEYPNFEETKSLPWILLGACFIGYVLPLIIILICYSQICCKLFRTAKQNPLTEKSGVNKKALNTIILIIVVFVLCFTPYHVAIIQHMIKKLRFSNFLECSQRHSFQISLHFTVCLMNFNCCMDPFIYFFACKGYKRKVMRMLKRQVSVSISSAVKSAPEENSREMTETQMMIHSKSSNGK

[5] = CellTiter-Glo luminescence survival assay, SW480 colon tumor line, concentration-response curve, half-maximal inhibitory concentration (AID 1117338); format: functional
[6] = HCT116 cell viability decrease, GSK3B pretreatment – CellTiter-Glo, IC50, dose response (AID 1117339); format: functional; conditions: HCT-116
[7] = RKO cell viability reduction, dose response, CellTiter-Glo luminescence (AID 1117322); format: functional
[8] = SNU-C1 cell viability reduction, dose response, CellTiter-Glo luminescence (AID 1117323); format: functional, cell-based
[9] = cytotoxicity toward HT-29 cells – cell-based, CellTiter-Glo luminescence, IC50, dose response (AID 1117330); format: functional
[10] = rise of 4N DNA cells, HeLa – IC50, dose response (AID 1117351); format: functional, cell-based
[11] = glucagon-like peptide-1 release potency in STC-1, concentration-response, half-maximal inhibitory concentration in the STC-1 line (AID 1117345); format: functional, cell-based
[12] = cytotoxicity toward HCT116 cells – cell-based, CellTiter-Glo luminescence, IC50, dose response (AID 1117332); format: functional; conditions: HCT-116
[13] = rise of 2N DNA cells, HeLa – IC50, dose response (AID 1117349); format: functional, cell-based
[14] = Potency on glucagon-like peptide 1 release, dose-response in NCI-H716 cell line, half maximal inhibitory concentration (AID 1117344); format: functional, cell-based
[15] = Reduced DLD-1 viability, concentration-response, CellTiter-Glo luminescence (AID 1117352); format: functional
[16] = cytotoxicity toward Colo320 cells – cell-based, CellTiter-Glo luminescence, IC50, dose response (AID 1117334); format: functional; conditions: COLO 320

Row | Compound | IC50 [5] | IC50 [6] | IC50 [7] | IC50 [8] | IC50 [9] | IC50 [11] | IC50 [12] | IC50 [14] | IC50 [15] | IC50 [16] | further results
1 | NC(=O)c1ccc(N2CCN(c3ccc(O)cc3)CC2)c([N+](=O)[O-])c1 |  |  |  |  |  |  |  |  |  |  | IC50 (Protein Tat): > 100 µM (active); IC50 (Large T antigen): 8.31 µM (active)
2 | O=C(Cc1ccc(-c2ccccc2)cc1)NC(c1ccccc1)c1ccccc1 |  |  |  |  |  |  |  |  |  |  | IC50 [1]: > 109 µM (inactive); IC50 [2]: > 83.3 µM (inactive)
3 | CCN(CC)CCOC(=O)C(C)(c1ccccc1)c1ccccc1 [APROFENE] |  |  |  |  |  |  |  |  |  |  | IC50 [3]: > 11.1 µM (inactive)
4 | O=C(c1ccc(Br)cc1)N1CCN(Cc2ccc(Cl)cc2)CC1 |  |  |  |  |  |  |  |  |  |  | IC50 [4]: 0.478 µM (active)
5 | CCN(CC)CCOc1ccc(C(O)(Cc2ccc(Cl)cc2)c2ccc(C)cc2)cc1 (stereo not drawn) [TRIPARANOL] | 3.76 µM (active) | 3.74 µM (active) | 0.299 µM (active) | 2.46 µM (active) | 3.17 µM (active) | > 40 µM (inactive) | > 20 µM (inactive) | 36.1 µM (inactive) | > 20 µM (inactive) | 8.99 µM (inactive) | IC50 [10]: > 10 µM (inactive); IC50 [13]: > 10 µM (inactive)
6 | COCC(=O)O[C@]1(CCN(C)CCCc2nc3ccccc3[nH]2)CCc2cc(F)ccc2[C@@H]1C(C)C [MIBEFRADIL DIHYDROCHLORIDE] | 4.54 µM (active) | 5.33 µM (inactive) | 6.72 µM (inactive) | 5.44 µM (inactive) | 3.08 µM (active) | 8.24 µM (inactive) | 12.4 µM (inactive) | > 40 µM (inactive) | 7.26 µM (inactive) | 10.5 µM (inactive) | 
